From patent US6864259B2, “Antibacterial agents” (Warner-Lambert Company, priority 2001, dated 2005)
Values after ≈ are worked out from the molar mass of the structure shown. Counter-ions that a name gives are not always drawn. Like-named read-outs stand apart in the source and are kept apart here.

How the values were obtained:
E. coli gyrase = E. coli gyrase (Escherichia coli, UniProt P0AES4+P0AES6); test: biochemical; details: supercoiling of relaxed pBR322, 30 minutes at 37° C.
E. coli Tol C = test: Test A antibacterial assay, standard microtitration (MIC); format: cell-based; details: Escherichia coli, read-out: Minimum Inhibitory Concentrations, E. coli Tol C
Experimental: (§1) The compounds of the present invention were tested against an assortment of Gram-negative and Gram-positive organisms using standard microtitration techniques (Cohen, et al., Antimicrob. Agents Chemother., 1985;28:766; Heifetz, et al., Antimicrob. Agents Chemother., 1974;6:124). […]

E. coli MC 4100 = test: as above; format: cell-based; details: Escherichia coli, MC4100; Gram negative; read-out: Minimum Inhibitory Concentrations, E. coli MC 4100
Experimental: as §1

E. faecalis RB1 = test: as above; format: cell-based; details: Enterococcus faecalis, Gram positive, read-out: Minimum Inhibitory Concentrations, E. faecalis RB1
Experimental: as §1

E. coli B90 = test: as above; format: cell-based; details: Escherichia coli, Gram negative, read-out: Minimum Inhibitory Concentrations, E. coli B90
Experimental: as §1

S. pyogenes C203 = test: as above; format: cell-based; details: Streptococcus pyogenes, Gram positive, read-out: Minimum Inhibitory Concentrations, S. pyogenes C203
Experimental: as §1

N. gonorrhoeae 2637 = test: Test C cross resistance antibacterial assay (MIC); format: cell-based, Neisseria gonorrhoeae
N. gonorrhoeae 2709 = test: Test C cross resistance antibacterial assay (MIC); format: cell-based; details: Neisseria gonorrhoeae, 2709, read-out: Minimum Inhibitory Concentrations, N. g. 2709
S. aureus 29213 = test: Test A antibacterial assay, standard microtitration (MIC); format: cell-based; details: Staphylococcus aureus, Gram positive, read-out: Minimum Inhibitory Concentrations, S. aureus 29213
Experimental: as §1

S. pyogenes = test: In vivo median protective dose in mice given lethal systemic infections; details: lethal systemic infection
S. aureus UC-76 = test: Test C cross resistance antibacterial assay (MIC); format: cell-based; details: Staphylococcus aureus
Experimental: (§2) The compounds of the present invention were tested against an assortment of ciprofloxacin resistant E. coli and S. aureus organisms described below using standard microtitration techniques (Cohen, et al., Antimicrob. Agents Chemother., 1985;28:766; Heifetz, et al., Antimicrob. Agents Chemother., 1974;6:124).

S. aureus 2552 = test: Test C cross resistance antibacterial assay (MIC); format: cell-based
Experimental: as §2

[1] = Neisseria gonorrhoeae, 2637, derivative of MS11, parent strain, read-out: Minimum Inhibitory Concentrations, N. g. 2637
[2] = UC76, wild type sensitive strain, read-out: Minimum Inhibitory Concentrations, S. aureus UC-76
[3] = Staphylococcus aureus, 2552, upregulated norA pump, read-out: Minimum Inhibitory Concentrations, S. aureus 2552

Chain of E. coli gyrase (P0AES4 whole entry, one chain of several): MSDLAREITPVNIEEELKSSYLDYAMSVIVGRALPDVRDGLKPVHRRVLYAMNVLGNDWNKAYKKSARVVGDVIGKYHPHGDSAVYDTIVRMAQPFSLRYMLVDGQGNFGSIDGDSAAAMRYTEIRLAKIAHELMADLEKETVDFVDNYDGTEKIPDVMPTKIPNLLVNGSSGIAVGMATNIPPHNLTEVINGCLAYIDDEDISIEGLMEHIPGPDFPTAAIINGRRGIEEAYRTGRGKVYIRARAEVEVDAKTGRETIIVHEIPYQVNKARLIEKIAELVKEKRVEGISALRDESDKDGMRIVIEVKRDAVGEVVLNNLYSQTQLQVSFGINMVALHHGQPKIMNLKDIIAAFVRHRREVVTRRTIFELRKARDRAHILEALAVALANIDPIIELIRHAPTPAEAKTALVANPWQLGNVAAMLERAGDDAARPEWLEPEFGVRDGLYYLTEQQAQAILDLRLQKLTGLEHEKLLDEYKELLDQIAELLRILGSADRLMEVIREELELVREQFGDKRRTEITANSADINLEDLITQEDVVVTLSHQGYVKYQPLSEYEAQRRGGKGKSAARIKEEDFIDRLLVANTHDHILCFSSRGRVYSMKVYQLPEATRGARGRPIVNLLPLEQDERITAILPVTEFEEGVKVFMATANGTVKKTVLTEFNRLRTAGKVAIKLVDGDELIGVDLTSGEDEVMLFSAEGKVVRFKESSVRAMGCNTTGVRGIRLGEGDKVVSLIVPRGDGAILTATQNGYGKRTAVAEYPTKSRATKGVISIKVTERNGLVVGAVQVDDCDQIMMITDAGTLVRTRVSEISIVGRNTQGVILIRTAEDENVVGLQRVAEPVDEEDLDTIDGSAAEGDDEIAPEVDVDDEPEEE

Row | SMILES | melting point [°C] | IC50 (E. coli gyrase) [µM] | MIC (E. coli Tol C) [µg/mL] | MIC (E. coli MC 4100) [µg/mL] | MIC (E. faecalis RB1) [µg/mL] | MIC (E. coli B90) [µg/mL] | MIC (S. pyogenes C203) [µg/mL] | MIC (N. gonorrhoeae 2637; Neisseria gonorrhoeae, 2637, read-out: Minimum Inhibitory Concentrations, N. g. 2637) [µg/mL] | MIC (N. gonorrhoeae 2709) [µg/mL] | MIC (S. aureus 29213) [µg/mL] | In Vivo Median Protective Dose (PD50) in Mice (PO) (S. pyogenes) [mg/kg] | MIC (S. aureus UC-76; UC76, read-out: Minimum Inhibitory Concentrations, S. aureus UC-76) [µg/mL] | MIC (S. aureus 2552; Staphylococcus aureus, 2552, read-out: Minimum Inhibitory Concentrations, S. aureus 2552) [µg/mL] | MIC (N. gonorrhoeae 2637; [1]) [µg/mL] | MIC (S. aureus UC-76; [2]) [µg/mL] | MIC (S. aureus 2552; [3]) [µg/mL]
1 | Cc1c(N2CC[C@@H]([C@@H](C)N)C2)c(F)cn2c(=O)n(N)c(=O)c(C3CC3)c12.Cl | 218 to 221 | – | – | – | – | – | – | – | – | – | – | – | – | – | – | –
2 | Cc1c(N2CCC(N)C2)c(F)cn2c(=O)n(N)c(=O)c(C3CC3)c12.Cl (stereo not shown) | 246 to 248 | – | – | – | – | – | – | – | – | – | – | – | – | – | – | –
3 | Cc1c(N2CC(C)C(C(C)N)C2)c(F)cn2c(=O)n(N)c(=O)c(C3CC3)c12.Cl (stereo not shown) | 238 to 240 | – | – | – | – | – | – | – | – | – | – | – | – | – | – | –
4 | Cc1c(N2CC(C(C)N)C(C)(C)C2)c(F)cn2c(=O)n(N)c(=O)c(C3CC3)c12 (stereo not shown) (as salt: hydrochloride) [Compound 5c, 2-Amino-6-[4-(1-amino-ethyl)-3,3-dimethylpyrrolidin-1-yl]-4-cyclopropropyl-7-fluoro-5-methyl-pyrido[1,2-c]pyrimidine-1,3-dione, hydrochloride] | 238 to 240 | – | – | – | – | – | – | – | – | – | – | – | – | – | – | –
5 | Cc1c(N2C[C@H](CN)[C@H](F)C2)c(F)cn2c(=O)n(N)c(=O)c(C3CC3)c12 (racemic) [Compound 4j, 2-Amino-6-((3S,4S) and (3R,4R)-3-aminomethyl-4-fluoropyrrolidin-1-yl)-4-cyclopropyl-7-fluoro-5-methylpyrido[1,2-c]pyrimidine-1,3-dione] | – | 1.5 | 0.13 (≈ 0.356 µM) | 2 (≈ 5.47 µM) | 0.5 (≈ 1.37 µM) | 0.25 (≈ 0.684 µM) | 0.03 (≈ 0.0821 µM) | – | – | – | – | – | – | – | – | –
6 | O=C(O)c1cn(C2CC2)c2cc(N3CCNCC3)c(F)cc2c1=O [Ciprofloxacin, ciprofloxacin, reference compound] | – | – | < 0.01 | < 0.02 | 0.5 (≈ 1.51 µM) | < 0.01 | 0.5 (≈ 1.51 µM) | 0.002 (≈ 0.00604 µM) | 0.06 (≈ 0.181 µM) | 0.5 (≈ 1.51 µM) | >100 | 0.13 (≈ 0.392 µM) | 2 (≈ 6.04 µM) | – | – | –
7 | CN[C@@H](C)[C@@H]1CCN(c2c(F)cn3c(=O)n(N)c(=O)c(C4CC4)c3c2C)C1 [Compound 4f, 2-Amino-4-cyclopropyl-7-fluoro-5-methyl-6-[3-(1-methylaminoethyl)pyrrolidin-1-yl]pyrido[1,2-c]pyrimidine-1,3-dione] | – | 1 | 0.03 (≈ 0.0799 µM) | 2 (≈ 5.33 µM) | 0.06 (≈ 0.16 µM) | 0.13 (≈ 0.346 µM) | 0.015 (≈ 0.04 µM) | – | 0.5 (≈ 1.33 µM) | 0.25 (≈ 0.666 µM) | 1.2 | – | – | 0.25 (≈ 0.666 µM) | 0.06 (≈ 0.16 µM) | 0.5 (≈ 1.33 µM)
8 | Cc1c(N2CCCC2)c(F)cn2c(=O)n(N)c(=O)c(C3CC3)c12 [Compound 4g, 2-Amino-4-cyclopropyl-7-fluoro-5-methyl-6-pyrrolidin-1-yl-pyrido[1,2-c]pyrimidine-1,3-dione] | 202 to 204 | 1.7 | < 0.06 | 16 (≈ 50.3 µM) | 2 (≈ 6.28 µM) | 0.25 (≈ 0.785 µM) | 1 (≈ 3.14 µM) | – | – | 1 (≈ 3.14 µM) | – | – | – | – | – | –
9 | Cc1c(N2CCC(C(C)O)C2)c(F)cn2c(=O)n(N)c(=O)c(C3CC3)c12 (stereo not shown) [Compound 4h] | 172 to 174 | 1.2 | < 0.06 | 16 (≈ 44.1 µM) | 2 (≈ 5.52 µM) | 0.13 (≈ 0.359 µM) | 2 (≈ 5.52 µM) | – | – | 0.5 (≈ 1.38 µM) | – | – | – | – | 0.5 (≈ 1.38 µM) | 1 (≈ 2.76 µM)
10 | Cc1c(N2CC[C@@H](C3(N)CC3)C2)c(F)cn2c(=O)n(N)c(=O)c(C3CC3)c12 [Compound 4i, 2-Amino-6-[(R)-3-(1-aminocyclopropyl)pyrrolidin-1-yl]-4-cyclopropyl-7-fluoro-5-methylpyrido[1,2-c]pyrimidine-1,3-dione] | – | 0.64 | 0.015 (≈ 0.0402 µM) | 0.5 (≈ 1.34 µM) | 0.06 (≈ 0.161 µM) | 0.03 (≈ 0.0803 µM) | 0.015 (≈ 0.0402 µM) | – | 0.13 (≈ 0.348 µM) | 0.06 (≈ 0.161 µM) | 2.1 | – | – | 0.03 (≈ 0.0803 µM) | 0.06 (≈ 0.161 µM) | 0.06 (≈ 0.161 µM)
11 | Cc1c(N2CC[C@@H]([C@H](C)N)C2)c(F)cn2c(=O)n(N)c(=O)c(C3CC3)c12.Cl [Compound 5b, 2-Amino-6-[(R)-3-((S)-1-aminoethyl)pyrrolidin-1-yl]-4-cyclopropyl-7-fluoro-5-methyl-pyrido[1,2-c]pyrimidine-1,3-dione, hydrochloride] | 218 to 220 | 0.5 | 0.03 | 0.5 | 0.13 | 0.06 | 0.008 | – | 0.25 | 0.25 | – | – | – | 0.13 | 0.06 | 0.25
12 | Cc1c(N2CC(C(C)N)C(C)(C)C2)c(F)cn2c(=O)n(N)c(=O)c(C3CC3)c12 (stereo not shown) [Compound 5c, 2-Amino-6-[4-(1-amino-ethyl)-3,3-dimethylpyrrolidin-1-yl]-4-cyclopropropyl-7-fluoro-5-methyl-pyrido[1,2-c]pyrimidine-1,3-dione, hydrochloride] | – | 0.7 | 0.5 | 16 | 2 | 2 | 0.5 | – | – | 2 | – | – | – | – | – | –
